{"source": "patent US5616320A", "about": "“Use of antibiotics 10381b to promote growth” (The Upjohn Company, priority 1994, dated 1997)", "key": {"[1]": {"system": "Gram-positive bacteria, yeasts, and fungi", "experiment": "In vitro antimicrobial activity (statement in words)", "type": "cell-based"}, "[2]": {"system": "Staphylococcus epidermidis", "experiment": "Antibacterial spectrum, disc zone of inhibition", "type": "cell-based", "parameters": "key: hazy; vl: very light; trace", "conditions": "UC 719; 1/4 inch discs, 20 μl", "protocol": "(§1) ^1 Assays marked * used 1/4 inch (6.35 mm) discs and 20 μl\n(§2) All other assays used 1/2 inch (12.7 mm) discs and 80 μl samples.\n(§3) h = hazy; vl = very light; tr = trace. Assay procedures are described in\n(§4) Hanka, L. J., M. R. Burch and W. T. Sokolski. Psicofuranine. IV.\n(§5) Microbiological assay. Antibiot. and Chemoth. 9:432-435 (1959)."}, "Neisseria gonorrhoeae": {"system": "Neisseria gonorrhoeae", "experiment": "Antibacterial spectrum, disc zone of inhibition", "type": "cell-based", "parameters": "key: hazy; vl: very light; trace", "conditions": "UC 3065; 1/4 inch discs, 20 μl", "protocol": "as §1, §2, §3, §4, §5"}, "Streptococcus pneumoniae": {"system": "Streptococcus pneumoniae", "experiment": "Antibacterial spectrum, disc zone of inhibition", "type": "cell-based", "parameters": "key: hazy; vl: very light; trace", "conditions": "UC 9207; 1/4 inch discs, 20 μl", "protocol": "as §1, §2, §3, §4, §5"}, "yeasts and fungi": {"system": "yeasts and fungi", "experiment": "Growth inhibition (statement in words)", "type": "cell-based"}, "Solubility": {"experiment": "Solubility", "type": "physicochemical"}, "Toxicity": {"experiment": "Toxicity", "parameters": "species or system mammals"}, "Proteus vulgaris": {"system": "Proteus vulgaris", "experiment": "Antibacterial spectrum, disc zone of inhibition", "type": "cell-based", "conditions": "UC 93; 1/2 inch discs, 80 μl", "protocol": "as §1, §2, §3, §4, §5"}, "Pasteurella hemolytica": {"system": "Pasteurella hemolytica", "experiment": "Antibacterial spectrum, disc zone of inhibition", "type": "cell-based", "conditions": "UC 6531; 1/2 inch discs, 80 μl", "protocol": "as §1, §2, §3, §4, §5"}, "Escherichia coli": {"system": "Escherichia coli", "experiment": "Antibacterial spectrum, disc zone of inhibition", "type": "cell-based", "conditions": "UC 51; 1/2 inch discs, 80 μl", "protocol": "as §1, §2, §3, §4, §5"}, "Bacillus subtilis": {"system": "Bacillus subtilis", "experiment": "Antibacterial spectrum, disc zone of inhibition", "type": "cell-based", "conditions": "UC 564; 1/2 inch discs, 80 μl", "protocol": "as §1, §2, §3, §4, §5"}, "Clostridium perfrigens": {"system": "Clostridium perfrigens", "experiment": "Antibacterial spectrum, disc zone of inhibition", "type": "cell-based", "conditions": "UC 6509; 1/2 inch discs, 80 μl", "protocol": "as §1, §2, §3, §4, §5"}, "[3]": {"system": "Salmonella schottmuelleri", "experiment": "Antibacterial spectrum, disc zone of inhibition", "type": "cell-based", "conditions": "UC 126; 1/2 inch discs, 80 μl", "protocol": "as §1, §2, §3, §4, §5"}, "Hemophilus influenzae": {"system": "Hemophilus influenzae", "experiment": "Antibacterial spectrum, disc zone of inhibition", "type": "cell-based", "conditions": "UC 6483; 1/4 inch discs, 20 μl", "protocol": "as §1, §2, §3, §4, §5"}, "Streptococcus pyogenes": {"system": "Streptococcus pyogenes", "experiment": "Antibacterial spectrum, disc zone of inhibition", "type": "cell-based", "conditions": "UC 152", "protocol": "as §1, §2, §3, §4, §5"}, "Serratia marcescens": {"system": "Serratia marcescens", "experiment": "Antibacterial spectrum, disc zone of inhibition", "type": "cell-based", "conditions": "UC 6888; 1/4 inch discs, 20 μl", "protocol": "as §1, §2, §3, §4, §5"}, "Klebsiella pneumoniae": {"system": "Klebsiella pneumoniae", "experiment": "Antibacterial spectrum, disc zone of inhibition", "type": "cell-based", "conditions": "UC 57; 1/2 inch discs, 80 μl", "protocol": "as §1, §2, §3, §4, §5"}, "Mycobacterium avium": {"system": "Mycobacterium avium", "experiment": "Antibacterial spectrum, disc zone of inhibition", "type": "cell-based", "conditions": "UC 159; 1/2 inch discs, 80 μl", "protocol": "as §1, §2, §3, §4, §5"}, "Pseudomonas aeruginosa": {"system": "Pseudomonas aeruginosa", "experiment": "Antibacterial spectrum, disc zone of inhibition", "type": "cell-based", "conditions": "UC 95; 1/2 inch discs, 80 μl", "protocol": "as §1, §2, §3, §4, §5"}, "Penicillium oxalicum": {"system": "Penicillium oxalicum", "experiment": "Antibacterial spectrum, disc zone of inhibition", "type": "cell-based", "conditions": "UC 1268", "protocol": "as §1, §2, §3, §4, §5"}, "Micrococcus luteus": {"system": "Micrococcus luteus", "experiment": "Antibacterial spectrum, disc zone of inhibition", "type": "cell-based", "conditions": "1/2 inch discs, 80 μl", "protocol": "as §1, §2, §3, §4, §5"}, "Streptococcus faecalis": {"system": "Streptococcus faecalis", "experiment": "Antibacterial spectrum, disc zone of inhibition", "type": "cell-based", "protocol": "as §1, §2, §3, §4, §5"}, "Bacteroides fragilis": {"system": "Bacteroides fragilis", "experiment": "Antibacterial spectrum, disc zone of inhibition", "type": "cell-based", "conditions": "UC 6513; 1/2 inch discs, 80 μl", "protocol": "as §1, §2, §3, §4, §5"}, "Candida albicans": {"system": "Candida albicans", "experiment": "Antibacterial spectrum, disc zone of inhibition", "type": "cell-based", "conditions": "UC 1392", "protocol": "as §1, §2, §3, §4, §5"}, "[4]": {"system": "Rhodopseudomonas sphaeroides", "experiment": "Antibacterial spectrum, disc zone of inhibition", "type": "cell-based", "conditions": "UC 3238; 1/2 inch discs, 80 μl", "protocol": "as §1, §2, §3, §4, §5"}, "Saccharomyces cerevisiae": {"system": "Saccharomyces cerevisiae", "experiment": "Antibacterial spectrum, disc zone of inhibition", "type": "cell-based", "conditions": "UC 1342", "protocol": "as §1, §2, §3, §4, §5"}, "Staphylococcus aureus": {"system": "Staphylococcus aureus", "experiment": "Antibacterial spectrum, disc zone of inhibition", "type": "cell-based", "protocol": "as §1, §2, §3, §4, §5"}, "[5]": {"system": "Bordetella bronchiseptica", "experiment": "Antibacterial spectrum, disc zone of inhibition", "type": "cell-based", "conditions": "UC 6481; 1/2 inch discs, 80 μl", "protocol": "as §1, §2, §3, §4, §5"}}}
{"compound": "CC(CCN(C)C(=N)N)C(N)C(=O)NC1C=CC(n2ccc(N)nc2=O)OC1C(=O)O", "note": "(centres unmarked) [Antibiotic 10381a1]", "values": [{"measurement": "antimicrobial activity", "setting": "[1]", "value": "broad spectrum antibiotic properties"}, {"measurement": "Zone of Inhibition", "setting": "[2]", "value": "tr"}, {"measurement": "Zone of Inhibition", "setting": "Neisseria gonorrhoeae", "value": "tr"}, {"measurement": "Zone of Inhibition", "setting": "Streptococcus pneumoniae", "value": "tr"}, {"measurement": "growth inhibitory effect", "setting": "yeasts and fungi", "value": "especially strong growth inhibitory effect"}, {"measurement": "Solubility", "setting": "Solubility; acetone, ethyl acetate, ether and chlorinated or saturated hydrocarbon solvents", "value": "Insoluble"}, {"measurement": "Solubility", "setting": "Solubility; water and lower alcohols", "value": "Soluble"}, {"measurement": "toxicity relative to blasticidin", "setting": "Toxicity; compared with blasticidin", "value": "less toxicity than blasticidin"}, {"measurement": "toxicity", "setting": "Toxicity; in mammals / versus prior art antibiotics", "value": "greatly reduced toxicity"}, {"measurement": "Zone of Inhibition", "setting": "Proteus vulgaris", "value": 0, "unit": "mm"}, {"measurement": "Zone of Inhibition", "setting": "Pasteurella hemolytica", "value": 0, "unit": "mm"}, {"measurement": "Zone of Inhibition", "setting": "Escherichia coli", "value": 0, "unit": "mm"}, {"measurement": "Zone of Inhibition", "setting": "Bacillus subtilis", "value": 0, "unit": "mm"}, {"measurement": "Zone of Inhibition", "setting": "Clostridium perfrigens", "value": 18, "unit": "mm"}, {"measurement": "Zone of Inhibition", "setting": "[3]", "value": 0, "unit": "mm"}, {"measurement": "Zone of Inhibition", "setting": "Hemophilus influenzae", "value": 10, "unit": "mm"}, {"measurement": "activity", "setting": "Streptococcus pyogenes", "value": "active"}, {"measurement": "Zone of Inhibition", "setting": "Streptococcus pyogenes; 1/2 inch discs, 80 μl", "value": 25, "unit": "mm"}, {"measurement": "Zone of Inhibition", "setting": "Serratia marcescens", "value": 0, "unit": "mm"}, {"measurement": "Zone of Inhibition", "setting": "Klebsiella pneumoniae", "value": 0, "unit": "mm"}, {"measurement": "Zone of Inhibition", "setting": "Mycobacterium avium", "value": 17, "unit": "mm"}, {"measurement": "Zone of Inhibition", "setting": "Pseudomonas aeruginosa", "value": 0, "unit": "mm"}, {"measurement": "activity", "setting": "Penicillium oxalicum", "value": "active"}, {"measurement": "Zone of Inhibition", "setting": "Penicillium oxalicum; 1/2 inch discs, 80 μl", "value": 36, "unit": "mm"}, {"measurement": "Zone of Inhibition", "setting": "Micrococcus luteus; UC 130", "value": 32, "unit": "mm"}, {"measurement": "Zone of Inhibition", "setting": "Micrococcus luteus; UC 3383", "value": 32, "unit": "mm"}, {"measurement": "Zone of Inhibition", "setting": "Streptococcus faecalis; UC 221, 1/4 inch discs, 20 μl", "value": 10, "unit": "vl"}, {"measurement": "activity", "setting": "Streptococcus faecalis; UC 694", "value": "active"}, {"measurement": "Zone of Inhibition", "setting": "Bacteroides fragilis", "value": 21, "unit": "mm"}, {"measurement": "activity", "setting": "Candida albicans", "value": "active"}, {"measurement": "Zone of Inhibition", "setting": "Candida albicans; 1/4 inch discs, 20 μl", "value": 12, "unit": "mm"}, {"measurement": "Zone of Inhibition", "setting": "[4]", "value": 33, "unit": "mm"}, {"measurement": "activity", "setting": "Saccharomyces cerevisiae", "value": "active"}, {"measurement": "Zone of Inhibition", "setting": "Saccharomyces cerevisiae; 1/2 inch discs, 80 μl", "value": 31, "unit": "mm"}, {"measurement": "Zone of Inhibition", "setting": "Staphylococcus aureus; UC 80, 1/2 inch discs, 80 μl", "value": 16, "unit": "h"}, {"measurement": "Zone of Inhibition", "setting": "Staphylococcus aureus; UC 3665, 1/2 inch discs, 80 μl", "value": 0, "unit": "mm"}, {"measurement": "Zone of Inhibition", "setting": "Staphylococcus aureus; UC 6685, 1/4 inch discs, 20 μl", "value": 0, "unit": "mm"}, {"measurement": "Zone of Inhibition", "setting": "[5]", "value": 0, "unit": "mm"}]}
